{
  "source": "patent US5637570A",
  "about": "“Disubstituted and trisubstituted derivatives of 2,3:4,6-di-O-isopropylidene-α-L-xylo-2-hexulofuranosonic acid having anti-cancer, anti-inflammatory and anti-proliferative activity” (Chemora Pharmochem, priority 1995, dated 1997)",
  "key": {"[1]": {"test_system": "SK-MEL-28 Melanoma Xenografts", "experiment": "Early Stage SK-MEL-28 Melanoma Xenografts", "conditions": "for Drug Deaths: of 6 mice; for Opt. % T/C: >40 considered inactive", "protocol": "(§3) In this in vivo model Murine or human tumor fragments (30 mg) are implanted subcutaneously into the axillary region of pathogen-free immunocompetent or immunodefficient mice, respectively, on experimental day 0. Test agent treatment is initiated either on the day which is historically associated with the start of tumor growth, or when the tumor is palpable. Tumor size and body weights are obtained approximately two times per week. Tumor weights are calculated from caliper measurements of tumor dimensions in mm using the formula for a prolate ellipsoid:\n(§4) (L×W^2)/2; where L is the longer of the 2 measurements\n(§5) Generally, tumor size is monitored until an upper weight limit of 500 mg is attained."}, "[2]": {"test_system": "mouse spleen cell (T-lymphocyte)", "experiment": "Concanavalin A (CON-A) assay, mouse spleen cell mitogen induced blastogenesis", "type": "cell-based", "conditions": "Anti-inflammatory/Anti-proliferative Activity", "description": "iii Concanavalin A assay (the mouse spleen cell mitogen induced blastogenesis).\n(§1) The MLR assay measures the effects of a study compound on the activation and antigen presentation of T-lymphocytes, therefore determining immunomodulatory properties. The mouse spleen cell mitogen-induced blastogenesis and the BUD-8 human fibroblast proliferation assays measure the effects of the compounds of the present invention on cellular proliferation of cells involved in the pathogenesis of autoimmune diseases. These two assays are appropriate as screens to ascertain anti-inflammatory and/or autoimmune diseases.\nIt is known that the induction and maintenance of most inflammatory diseases are typically due to the unrestricted activity of T-lymphocytes. Therefore, it is advantageous to identify compounds which are modulators of T-lymphocyte activity for eventual use in the regulation of inflammatory diseases, including acquired immune deficiency syndrome, psoriasis, systemic lupus, erythromatosus, and rheumatoid arthritis.\n(§2) The detailed experimental procedure for the above-mentioned assays is described in detail in U.S. Pat. Nos. 5,360,790 and 5,367,062 incorporated herein by reference."}, "[3]": {"test_system": "UACC-62 Melanoma Xenografts", "experiment": "Early Stage Subcutaneous Tumor Model UACC-62 Melanoma Xenografts", "conditions": "for Drug Deaths: of 6 mice; for Opt. % T/C: >40 considered inactive", "protocol": "as §3, §4, §5"}, "[4]": {"test_system": "T cells (splenic T cell proliferation, co-cultured spleen cells from two strains of mice)", "experiment": "Mixed lymphocyte response (MLR)", "type": "cell-based", "conditions": "Mus musculus, Anti-inflammatory/Anti-proliferative Activity", "description": "i Mixed lymphocyte response (MLR).\nas §1\nThe MLR is a classical assay used to measure T cell function by studying the proliferation response of T cells which are activated in vitro by genetically disparate stimulator cells. This is accomplished by co-culturing spleen cells from two different strains of mice. Splenic T cell proliferation occurs as a result of cellular activation signals generated by the ongoing cellular interactions.\nas §2"}, "[5]": {"test_system": "human tumor cell lines (approximately 60)", "experiment": "NCI in vitro human tumor cell line screen (SRB), mean graph midpoints over all cell lines", "type": "cell-based", "protocol": "In performing in vitro human tumor cell line assay, a total of approximately 60 human tumor cell lines derived from ten cancer types (leukemia, non-small cell lung cancer, small cell lung cancer, colon cancer, CNS cancer, melanoma, ovarian cancer, renal cancer, breast cancer and prostate cancer) were used in this assay. Compounds were tested at different concentrations against every cell line. All lines are inoculated into a series of standard 96-well microtiter plates on day 0, in the majority of cases at 20,000 cells/well, and then pre-incubated in the absence of testing agent for 24 hours. A testing agent was then added in five 10-fold dilutions and incubated for a further period of 48 hours. Following this, the cells are fixed in situ, washed, and dried. Sulforhodamine B (SRB, protein binding dye) is added, followed by further washing and drying of the stained adherent cell mass. The bound stain is solubilized and measured spectrophotometrically on an automatic plate reader.\nFor each compound, dose response curves for each cell line were measured with five different drug concentrations, and the concentration causing 50% cell growth inhibition (GI50), total cell growth inhibition (TGI, 0% growth), and 50% cell death (LC50, -50% growth) compared with the control was calculated. […] In these graphs, the mean logarithmic value of GI50 in all cell lines for each tested compound is used as the midpoint of that bar graph."}, "[6]": {"test_system": "COLO 205 Colon Tumor Xenografts", "experiment": "Early Stage SC COLO 205 Colon Tumor Xenografts", "conditions": "for Drug Deaths: of 6 mice; for Opt. % T/C: >40 considered inactive", "protocol": "as §3, §4, §5"}, "P388 Murine Leukemia": {"test_system": "P388 Murine Leukemia", "experiment": "P388 Murine Leukemia in vivo", "procedure": "Two of the compounds of the present invention (Ic and Im) were also tested against P388 Murine Leukemia."}, "BUD-8 human fibroblast": {"test_system": "BUD-8 human fibroblast", "experiment": "BUD-8 human cell line fibroblast proliferation assay (FIB.)", "type": "cell-based", "conditions": "Anti-inflammatory/Anti-proliferative Activity", "description": "ii BUD-8 human cell line fibroblast proliferation assay.\nas §1\nThe skin cell fibroblast line, BUD-8, was originally derived from the normal skin of a person and can now be obtained from the American Type Culture Collection, Rockville, Md.\nas §2"}, "[7]": {"conditions": "130 mg/kg/dose IP QD × 5, day 3"}, "[8]": {"conditions": "130 mg/kg/dose IP Q4D × 3, day 7"}, "[9]": {"conditions": "Ic 60, 40 and 27 mg/kg/dose, Im 120, 80 and 54 mg/kg/dose"}},
  "note": "Where two headings read alike, the source gives them in different places.",
  "data": [
    {"smiles": "CCCCCCCCCCCCOC[C@@]12O[C@@H](C)[C@@H](OCCN3CCCCC3)[C@@H]1OC(C)(C)O2", "note": "[Im, 2,3-O-Isopropylidene-6-deoxy-1-O-dodecyl-4-O-ethylpiperidinyl-α-L-xylo-2-hexulofuranose]", "values": [
      {"measurement": "Drug Deaths", "setting": "[1]; 54 mg/kg/dose IP QD × 5, day 3", "result": 1},
      {"measurement": "Opt. % T/C", "setting": "[1]; 54 mg/kg/dose IP QD × 5, day 3, optimum on day 16", "result": 47, "unit": "%"},
      {"measurement": "Drug Deaths", "setting": "[1]; 90 mg/kg/dose IP QD × 5, day 3", "result": 2},
      {"measurement": "Opt. % T/C", "setting": "[1]; [7]", "result": "Toxic"},
      {"measurement": "Drug Deaths", "setting": "[1]; [7]", "result": 5},
      {"measurement": "Opt. % T/C", "setting": "[1]; Im 90 mg/kg/dose IP QD × 5, day 3, optimum on day 9", "result": 49, "unit": "%"},
      {"measurement": "IC50", "setting": "[2]", "result": 7.4, "unit": "µM"},
      {"measurement": "Drug Deaths", "setting": "[3]; 54 mg/kg/dose IP Q4D × 3, day 6", "result": 0},
      {"measurement": "Opt. % T/C", "setting": "[3]; 54 mg/kg/dose IP Q4D × 3, day 6, optimum on day 9", "result": 51, "unit": "%"},
      {"measurement": "Drug Deaths", "setting": "[3]; 90 mg/kg/dose IP Q4D × 3, day 6", "result": 0},
      {"measurement": "Opt. % T/C", "setting": "[3]; 90 mg/kg/dose IP Q4D × 3, day 6, optimum on day 16", "result": 44, "unit": "%"},
      {"measurement": "Drug Deaths", "setting": "[3]; 130 mg/kg/dose IP Q4D × 3, day 6", "result": 1},
      {"measurement": "Opt. % T/C", "setting": "[3]; 130 mg/kg/dose IP Q4D × 3, day 6, optimum on day 16", "result": 42, "unit": "%"},
      {"measurement": "IC50", "setting": "[4]", "result": "< 1", "unit": "µM"},
      {"measurement": "CC50", "setting": "[5]; Homo sapiens, 50% cell death (-50% growth), average of all cell lines, 48 h, read-out: log10 LC50 mean graph midpoint (converted)", "result": 50.1, "unit": "µM"},
      {"measurement": "GI50", "setting": "[5]; Homo sapiens, 50% cell growth inhibition, average of all cell lines, 48 h, read-out: GI50 (average)", "result": 20.2, "unit": "µM"},
      {"measurement": "GI50", "setting": "[5]; Homo sapiens, average of all cell lines, log10 of molar concentration, 48 h, read-out: log10 I50 (log10 GI50 mean graph midpoint) (converted)", "result": 9.77, "unit": "µM"},
      {"measurement": "IC (TGI)", "setting": "[5]; Homo sapiens, total cell growth inhibition (0% growth), average of all cell lines, 48 h, read-out: log10 TGI mean graph midpoint (converted)", "result": 22.9, "unit": "µM"},
      {"measurement": "in vitro activity in words", "setting": "[5]; various in vitro cell lines, IC50, average GI50, mean graph pattern", "result": "significant activity in various in vitro cell lines"},
      {"measurement": "Drug Deaths", "setting": "[6]; 54 mg/kg/dose IP Q4D × 3, day 7", "result": 0},
      {"measurement": "Opt. % T/C", "setting": "[6]; 54 mg/kg/dose IP Q4D × 3, day 7, optimum on day 36", "result": 44, "unit": "%"},
      {"measurement": "Drug Deaths", "setting": "[6]; 90 mg/kg/dose IP Q4D × 3, day 7", "result": 0},
      {"measurement": "Opt. % T/C", "setting": "[6]; [8]", "result": "Toxic"},
      {"measurement": "Drug Deaths", "setting": "[6]; [8]", "result": 4},
      {"measurement": "Opt. % T/C", "setting": "[6]; Im 90 mg/kg/dose IP Q4D × 3, day 7, optimum on day 29", "result": 45, "unit": "%"},
      {"measurement": "antitumor activity", "setting": "P388 Murine Leukemia; [9]", "result": "only slight antitumor activity"},
      {"measurement": "toxicity", "setting": "P388 Murine Leukemia; [9]", "result": "toxic at the higher dose levels"},
      {"measurement": "maximally tolerated dose", "setting": "P388 Murine Leukemia; mouse, in vivo", "result": "a maximally tolerated dose was not achieved"},
      {"measurement": "IC50", "setting": "BUD-8 human fibroblast", "result": 3.6, "unit": "µM"}
    ]}
  ]
}
